Experimental data taken from patent publication US9107909B2, “Materials and methods to enhance hematopoietic stem cells engraftment procedures” (priority 2008, dated 2015).

How the values were obtained:
CXCR4 mRNA = experiment: QRT-PCR of CXCR4 mRNA; assay type: cell-based; settings: for time post-exposure of (maximal) CXCR4 mRNA upregulation: vs vehicle
Protocol: Total RNA was obtained using the absolutely RNA purification kit (Stratagene, La Jolla, Calif.). A constant amount of RNA was reverse transcribed with random primers (Promega, Madison, Wis.) and MMLV-reverse transcriptase (Promega) in a volume of 50 microLiter with 1 milliMolar dNTPs and RNase inhibitor as described (Fukuda and Pelus, 2001). DNase and RNase free water (Ambion, Austin, Tex.) was added to obtain a final concentration equivalent of 10 nanogram RNA/microLiter and 5 microLiter used for QRT-PCR. Primers for SYBR Green QRTPCR were designed to produce an amplicon size of 75-150 bp. QRT-PCR was performed in a total volume of 30 microLiter using Platinum SYBR Green qPCR supermix UDG with Rox (Invitrogen, Carlsbad, Calif.) in an ABI-7000 (Applied Biosystems, Carlsbad, Calif.), with an activation step of 50° C. for 2 min, denaturation at 95° C. for 2 min and amplification for 45 cycles at 95° C.-15 sec, 50° C.-30 sec, 72° C.-30 sec, followed by dissociation to confirm that only one product was obtained.
Referring now to FIG. 4A, the stromal-cell-derived factor-1 alpha (SDF-1a)/CXCR4 axis has been implicated in HSPC trafficking and homing. The study evaluated whether the improved homing of dmPGE2-treated HSPC was the result of increased SDF-1a/CXCR4 signalling.
To evaluate CXCR4, Lineage^neg mouse bone marrow cells or CD34^+ UCB were treated on ice with either 1 microMolar dmPGE2 or vehicle control for 2 hours, washed, and then cultured in RPMI-1640/10% HI-FBS at 37° C. for 24 hours, stained for SKL (murine cells) or CD34 (human) and CXCR4 and analyzed by FACS. Referring now to FIG. 4A, CXCR4 expression on murine KL and SKL cells and human CD34^+ UCB cells 24 hours after treatment with dmPGE2. Data are expressed as Mean±SEM % change in mean fluorescence intensity (MFI) of CXCR4 due to treatment with dmPGE2 or vehicle (n=3).

SKL cells = experiment: In vitro cell cycle analysis; assay type: cell-based, mouse
Protocol: For in vitro cell cycle analysis, Lin^neg cells were treated with either 1 microMolar dmPGE2 or vehicle for 2 hours, washed, and cultured in Stem Cell Pro Media (Stem Cell Technologies) with rmSCF (50 ng/ml) (R&D Systems, Minneapolis, Minn.), rhFlt-3 and rhTPO (100 ng/ml each) (Immunex, Seattle, Wash.). After 20 hours, cells were stained for SKL, fixed and permeabilized, and stained with 7AAD (BD Biosciences, San Jose, Calif.). The proportion of SKL cells in S+G2/M phase was determined by measuring DNA content by FACS. For in vivo cell cycle analysis, CD45.2 mice were lethally irradiated and transplanted with 5×10^6 Lin^neg cells from CD45.1 mice treated with either 1 microMolar dmPGE2 or vehicle for 2 hours. At the time of transplant, recipient mice received 1 milligram/mL BrdU (Sigma Aldrich, St. Louis, Mo.) in drinking water and 1 mg per mouse BrdU I.P. After 16 hours, recipient marrow was isolated, lineage depleted, and stained for CD45.1, SKL and BrdU. The proportion of homed (CD45.1^+) SKL cells that were BrdU^+ was determined by FACS in individual mice.
Survivin regulates HSPC entry into and progression through cell cycle. Furthermore, β-catenin, implicated in HSPC proliferation and self-renewal, lies downstream of EP receptor pathways. […] To test this hypothesis, the cell cycle status of SKL cells pulsed with dmPGE2 or vehicle in vitro was analyzed. Referring now to FIG. 6A, pulse-exposure to dmPGE2 increased DNA content in SKL cells, an indication of increased cell cycling (left panels, upper right quadrant). In 3 experiments, 60% more SKL cells were in S+G2/M phase of the cell cycle after dmPGE2 treatment compared to controls (FIG. 6A right panel).
Lineage^neg cells were treated with either vehicle or 1 microMolar dmPGE2 for 2 hours, washed and cultured in media with rmSCF, rhFlt3 and rhTpo. After 20 hours cells were stained for SKL and Hoechst-33342 and Pyronin-Y. The proportion of SKL cells in cell cycle were measured by FACS. Referring now to FIG. 12, representative flow plot showing cell cycle distribution of gated SKL cells and combined data for fold increase in cell cycle for dmPGE2-treated cells compared to vehicle control from 3 experiments, Mean±SEM, n=9 mice, each assayed individually. […]
Referring now to FIG. 8, table summarizing data collected using Lin^neg bone marrow cells treated with either 1 microMolar dmPGE2 or vehicle for 2 hours and cultured in the presence of growth factors (50 ng/ml rmSCF, 100 ng/ml each of rhFlt-3 and rhTPO) for 20 hours, were stained for SLAM SKL, Hoechst-33342 and Pyronin-Y and the proportion of SLAM SKL cells in G0, G1, S and G2/M phase of the cell cycle determined by quantitation of the DNA and the RNA content by FACS. Data are Mean±SEM for n=9 mice, each assayed individually. ^(b)Percentage of cells in G1+S+G2M; Combined data for n=9 mice. ^(*^)P<0.05 compared to vehicle control.

homed SKL cells = experiment: In vivo cell cycle analysis (BrdU) of homed SKL cells; set-up: species or system mouse; settings: BrdU treated recipient mice, 16 hours, vs vehicle pulsed cells
Protocol: For in vitro cell cycle analysis, Lin^neg cells were treated with either 1 microMolar dmPGE2 or vehicle for 2 hours, washed, and cultured in Stem Cell Pro Media (Stem Cell Technologies) with rmSCF (50 ng/ml) (R&D Systems, Minneapolis, Minn.), rhFlt-3 and rhTPO (100 ng/ml each) (Immunex, Seattle, Wash.). After 20 hours, cells were stained for SKL, fixed and permeabilized, and stained with 7AAD (BD Biosciences, San Jose, Calif.). The proportion of SKL cells in S+G2/M phase was determined by measuring DNA content by FACS. […] The proportion of homed (CD45.1^+) SKL cells that were BrdU^+ was determined by FACS in individual mice.
To confirm the effect of dmPGE2 on enhancement of HSPC cell cycle observed in vitro, marrow cells were pulsed with dmPGE2 and injected into congenic mice treated with BrdU post-transplant, and the proportion of donor BrdU^+ SKL cells was determined 16 hours later.
CD45.1 Lineage^neg bone marrow cells were treated with dmPGE2 or vehicle and transplanted into lethally irradiated CD45.2 mice. […] Bone marrow was analyzed 16 hours later and the proportion of CD45.1^+, SKL cells that were BrdU^+ was analyzed by FACS analysis. […] Bone marrow was analyzed 16 hours later and the proportion of CD45.1^+, SKL cells that were BrdU^+ was analyzed by FACS analysis. […]

Structure (SMILES) | time post-exposure of (maximal) CXCR4 mRNA upregulation (CXCR4 mRNA) | cell cycle rate of CD150+48− (SLAM) SKL cells (SKL cells; in vitro, 1 microMolar 2 hours, 20 hours culture) | proportion of SKL cells actively in cell cycle (SKL cells; in vitro, within 24 hours post-treatment) | increase in proportion of HSPC in cell cycle / HSPC cell cycle activity (SKL cells; pulse exposure) | donor (homed) SKL cells in S+G2/M phase (homed SKL cells) | increase in CXCR4 mRNA (CXCR4 mRNA) | cell cycle rate of KL or Lin neg cells (SKL cells; in vitro) | more SKL cells in S+G2/M phase of the cell cycle (SKL cells; in vitro, 3 experiments, vs controls)
CCCCC[C@H](O)/C=C/[C@H]1[C@H](O)CC(=O)[C@@H]1C/C=C\CCCC(=O)O [PGE2, Prostaglandin E2] | 6 h | Increases the Cell Cycle Rate | increase | ~2 fold | ~2 fold |  |  | 
CCCCC(C)(C)[C@H](O)/C=C/[C@H]1[C@H](O)CC(=O)[C@@H]1C/C=C\CCCC(=O)O [dmPGE2, 16,16-dimethyl prostaglandin E2] | 6 h |  |  |  | ~2 fold | 2.65 fold | No significant effect | 60%
